This passage reports TGI results from PubChem BioAssay (NCI).

What all share (test): inhibition of tumour cell growth, NCI panel, 48 h
Test [1] concerns EKVX NSCLC.
The subject of test [2] is MOLT-4 leukemia.
The subject of test [3] is M14 melanoma.
The test system of test [4] is SNB-19 CNS.
For test [5], the system named is OVCAR-5 ovarian.
Test [6] deals with IGROV1 ovarian.
Test [7] has as its system SK-MEL-2 melanoma.
For test [8], the system named is PC-3 prostate.
Test [9] has as its system T-47D breast.
Test [10] concerns A498 renal.

Values joined by “and” are separate entries in the source; they are usually repeats but may differ in a detail not shown here. Equal entries are not always repeated.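 Method: 48-hour compound exposure of cells in 96-well plates, five concentrations, linear interpolation of endpoints. TGI marks complete inhibition of growth.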

As to `Cc1ccc(S(=O)(=O)C(C#N)c2nc3ccccc3nc2-n2cccn2)cc1` (centres undefined), the TGI in [1], in test [2], in [3], in test [4], in [5] and in [6] was more than 100 µM in each case. This molecule also displayed a TGI in [7] of more than 100 µM.
As to `O=C1CCC2(CC1)Cc1ccccc1C2O` (centres undefined), the TGI in [1], in [2], in test [3], in test [4], in [8] and in test [5] was more than 100 µM in each case. The TGI in test [6], in test [9] and in test [7] was more than 100 µM each time.
Regarding `CC1(C)CC(=O)C(/C=N/c2nc(-c3ccc(Br)cc3)cs2)=C(O)C1`, the TGI was more than 100 µM in [1]; more than 100 µM in test [2]; 48.4 µM in test [3]; more than 100 µM in [4]; more than 100 µM in test [8]; more than 100 µM in test [5]. In addition, the TGI is more than 100 µM in [6], more than 100 µM in test [9] and 48.4 µM in test [7].
Turning to `Cc1ccc2ccccc2c1CC1S(=O)(=O)OCCOS1(=O)=O`, the TGI in [1] is 29.9 µM; in test [2] it was 27.5 µM; in [3], 28.7 µM; in test [4], 25.9 µM; in test [8] it was 24.3 µM; in test [5] it was 24.4 µM. The TGI in test [7] came to 37.9 µM.
With `O=S1(=O)NNC(=NCc2ccc(F)cc2)c2ccccc21`, the TGI in test [1] was more than 100 µM; in test [2] it was more than 70.8 µM; in [3], more than 100 µM; in test [10], more than 100 µM; in test [4] it was more than 100 µM; in test [5], more than 100 µM. Besides, the TGI in test [6], in test [9] and in [7] was more than 100 µM throughout.
On to `O=C(Cn1c2ccc(Br)cc2c2nc3ccccc3nc21)NC1CCCCC1`, for which the TGI in [2], in test [3], in [10], in test [4], in test [8] and in test [5] was more than 100 µM throughout. Further, the TGI in test [6], in test [9] and in test [7] was more than 100 µM each time.
As to `CC(C)(CN1CCCCC1)C(=O)CC(SCCS(=O)(=O)O)c1ccc(Br)cc1` (centres undefined), the TGI in [1] stood at 6.51 µM; in [2], 7.62 µM; in [3], 3.54 µM; in [10], 5.73 µM; in test [4], 5.44 µM; in test [5], 9.34 µM. In addition, the TGI stood at 4.56 µM in test [6] and 4.37 µM in test [7].
For `COc1ccccc1C(=O)c1c(N2CCCCC2)c(=O)c1=O`, the TGI in [1], in [2], in test [3], in [10], in test [4] and in test [8] was more than 100 µM in each case. Further, the TGI in [5], in [6] and in [7] was more than 100 µM in each case.
As to `CC(=O)O[C@]12CCCCCCC1C1(O)C(O)CCC[C@H]12` (some centres undefined), the TGI in test [1], in test [2], in test [3], in test [4] and in test [7] was more than 100 µM each time.
Consider `COc1cc(C(=O)Nc2nnc(S(N)(=O)=O)s2)cc(OC)c1OC`, for which the TGI in test [1], in test [2], in [3], in [4], in [5] and in test [9] was more than 100 µM each time. This molecule also gave a TGI in test [7] of more than 100 µM.
Take `Cc1ccc2c(c1)c(=O)c1c(NCCN(C)C)ccc3nnn2c31`: the TGI was 23.6 µM in test [1]; 5.06 µM in test [2]; 16.4 µM in test [3]; 12 µM in test [10]; 33.8 µM in [4]; 12.4 µM in test [5]. For the same molecule, the TGI was 23 µM in test [6] and 21.1 µM in test [7].
As for `c1ccc(C2=NN3CN(N2)c2ccccc2OCCCOc2ccccc23)cc1`, the TGI in test [1], in [2], in test [3], in test [4], in test [5] and in test [6] was more than 100 µM each time. Besides, the TGI in test [7] is more than 100 µM.
As to `C=CCc1c(O)c2ccccc2[nH]c1=O`, the TGI in [1], in test [2], in [10], in [4], in test [8] and in [5] was more than 100 µM each time. This molecule registered a TGI in test [6] of more than 100 µM.
On to `C#CC(C)(C)Oc1cc(OC)c2c(=O)c3ccccc3n(C)c2c1`, for which the TGI in [1] was 74.5 µM; in [2] it was 22.3 µM; in [4], 93.8 µM; in test [8] it was 40.8 µM; in test [5], 98.3 µM; in [6], 45 µM. In addition, the results for the TGI in [9] and in [7] were 27.9 µM and 35.7 µM, respectively.
In the case of `c1ccc2c(c1)CC1c3[nH]c4ccccc4c3CCN21` (centres undefined), the TGI in test [1], in test [2], in [3], in test [4], in test [8] and in [5] was more than 10 µM in each case. For the same molecule, the TGI in test [6], in test [9] and in [7] was more than 10 µM in each case.
Consider `O=C1NC(=O)/C(=C\c2ccncc2)N1`, for which the TGI in test [1], in test [2], in test [3], in test [4], in [8] and in test [5] was more than 100 µM each time. In addition, the TGI in [6], in test [9] and in test [7] was more than 100 µM in each case.
Regarding `CCCCN(CCCC)C(=NCc1ccccc1)NC#N`, the TGI in test [1] is 73.5 µM; in test [3], 52.1 µM; in test [10] it was 42.6 µM; in [4], 54.2 µM; in test [5], 81.7 µM; in test [6] it was 59.2 µM. The same molecule yielded a TGI in test [7] of 39 µM.
As for `NC1=NS(=O)(=O)N=C(N)C1=Cc1ccc([N+](=O)[O-])o1`, the TGI in [1] was 32.5 µM; in [2], 40.7 µM; in [3], 26.9 µM; in [4] it was more than 100 µM; in test [5], 32.9 µM; in test [6], 32.1 µM. In [7], this molecule yielded a TGI of 30.9 µM.
For the molecule `Brc1ccc(N2C[N+](c3ccc(Br)cc3)=NC(c3ccccc3)=N2)cc1`, the TGI in test [1] is 31.8 µM and > 100 µM; in test [2], 32.5 µM and > 100 µM; in [3], 26.2 µM and > 100 µM; in test [10] it was 32.8 µM and > 100 µM; in test [4] it was 32.6 µM and > 100 µM; in test [5], 30.2 µM and > 100 µM. In addition, the TGI was 29.1 µM and > 100 µM in test [6]; 32.6 µM and > 100 µM in [7].
Regarding `CCCCCCCCCCCCCCCCOCC(CC(F)(F)P(=O)(O)O)OC(C)=O` (centres undefined), the TGI in test [1], in test [2], in test [3], in [10], in test [4] and in [8] was more than 50 µM each time. The TGI in test [5], in [6] and in test [7] was more than 50 µM throughout.
Consider `Cc1ccc(S(=O)(=O)Nn2c(-c3ccccc3)c(C#N)c(-c3ccc([N+](=O)[O-])cc3)c(C#N)c2=O)cc1`, for which the TGI in [1], in test [2], in test [3], in test [10], in [4] and in test [8] was more than 100 µM each time. For the same molecule, the TGI in test [5], in [6] and in [7] was more than 100 µM each time.
As to `Cc1cnc(Cl)nc1C(C#N)c1nc2ccccc2n1C` (centres undefined), the TGI in [1] is 57.1 µM; in test [2] it was more than 100 µM; in [3] it was more than 100 µM; in test [10], more than 100 µM; in [4] it was more than 100 µM; in test [5], more than 100 µM. For the same molecule, the TGI in test [6] and in [9] was more than 100 µM throughout.
Take `O=C1CCC2(CCC(=O)NC2=O)C(=O)N1`: the TGI in test [1], in test [2], in [3], in test [4] and in test [6] was more than 100 µM throughout.
With `O=C(c1cccs1)N(C(=S)N1CCN(c2ccccc2)CC1)c1ccccc1`, the TGI in [2], in test [3], in test [4], in test [5], in [6] and in test [7] was more than 100 µM throughout.
Turning to `Cc1cs/c(=N\C(P(=O)(O)O)P(=O)(O)O)n1C`, the TGI in [1], in [2], in test [3], in test [10], in test [4] and in test [8] was more than 100 µM in each case. The TGI in [5] and in test [6] was more than 100 µM throughout.
